pIC50: −log10 of the molar value. Read-outs that look alike come from different tables or passages of the source.
Key:
IKZF3 = target: T1, IKZF3 (Homo sapiens, UniProt Q96SW2+Q9UKT9); assay: Western-blot assay of substrate protein degradation in hPBMCs, IKZF3; format: cell-based; settings: 24 hours of compound treatment
T1 construct: endogenous in cells; host or cells: hPBMCs (Milecell Biotechnologies)

GSPT1 = target: T2, GSPT1 (Homo sapiens, UniProt P15170+Q96SW2); assay: Western-blot assay of substrate protein degradation in hPBMCs, GSPT1; format: cell-based; settings: 24 hours of compound treatment
T2 construct: endogenous in cells; host or cells: hPBMCs (Milecell Biotechnologies)

IKZF2 = target: T3, IKZF2 (Homo sapiens, UniProt Q96SW2+Q9UKS7); assay: Western-blot assay of substrate protein degradation in hPBMCs, IKZF2; format: cell-based; settings: 24 hours of compound treatment
T3 construct: endogenous in cells; host or cells: hPBMCs (Milecell Biotechnologies)

[1] = target: T4, human Cereblon WT GST-tagged protein (Homo sapiens, UniProt Q96SW2); assay: CRBN-binding affinity by HTRF (CEREBLON BINDING kit)
T4 construct: purchased CISBIO 64BDCRBNPEH

IKZF1 = target: T5, IKZF1 (Homo sapiens, UniProt Q13422+Q96SW2); assay: Western-blot assay of substrate protein degradation in hPBMCs, IKZF1; format: cell-based; settings: 24 hours of compound treatment
T5 construct: endogenous in cells; host or cells: hPBMCs (Milecell Biotechnologies)

CK1α = target: T6, CK1α (Homo sapiens, UniProt P48729+Q96SW2); assay: Western-blot assay of substrate protein degradation in hPBMCs, CK1α; format: cell-based; settings: 24 hours of compound treatment
T6 construct: endogenous in cells; host or cells: hPBMCs (Milecell Biotechnologies)

WEE1 = target: T7, WEE1 (Homo sapiens, UniProt P30291+Q96SW2); assay: Western-blot assay of substrate protein degradation in hPBMCs, WEE1; format: cell-based; settings: 24 hours of compound treatment
T7 construct: endogenous in cells; host or cells: hPBMCs (Milecell Biotechnologies)

[2] = compounds tested at 50 nM and 500 nM (concentration of the table not stated)
[3] = HTRF inhibitory activity, CEREBLON BINDING kit, read-out: HTRF IC50
[4] = 50 nM and 500 nM tested (concentration behind the class not stated)

T7 sequence (P30291 whole entry): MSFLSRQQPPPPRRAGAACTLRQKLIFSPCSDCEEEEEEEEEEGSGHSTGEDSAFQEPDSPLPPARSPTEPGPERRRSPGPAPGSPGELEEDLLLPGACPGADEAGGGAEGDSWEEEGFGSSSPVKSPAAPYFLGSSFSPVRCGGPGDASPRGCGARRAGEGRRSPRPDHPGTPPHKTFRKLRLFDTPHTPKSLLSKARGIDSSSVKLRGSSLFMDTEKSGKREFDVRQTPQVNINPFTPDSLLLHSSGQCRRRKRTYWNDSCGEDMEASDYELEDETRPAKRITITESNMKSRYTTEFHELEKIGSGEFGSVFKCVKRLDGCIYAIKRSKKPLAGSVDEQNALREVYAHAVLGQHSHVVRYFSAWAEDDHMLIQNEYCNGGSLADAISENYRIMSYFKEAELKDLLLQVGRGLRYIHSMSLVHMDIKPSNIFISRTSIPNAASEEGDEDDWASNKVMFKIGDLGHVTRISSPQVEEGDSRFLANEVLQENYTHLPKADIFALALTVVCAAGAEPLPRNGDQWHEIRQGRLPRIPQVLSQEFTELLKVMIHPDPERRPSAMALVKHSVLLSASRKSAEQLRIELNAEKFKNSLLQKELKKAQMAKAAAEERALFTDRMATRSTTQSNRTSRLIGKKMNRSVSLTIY
T7 sequence (Q96SW2 whole entry): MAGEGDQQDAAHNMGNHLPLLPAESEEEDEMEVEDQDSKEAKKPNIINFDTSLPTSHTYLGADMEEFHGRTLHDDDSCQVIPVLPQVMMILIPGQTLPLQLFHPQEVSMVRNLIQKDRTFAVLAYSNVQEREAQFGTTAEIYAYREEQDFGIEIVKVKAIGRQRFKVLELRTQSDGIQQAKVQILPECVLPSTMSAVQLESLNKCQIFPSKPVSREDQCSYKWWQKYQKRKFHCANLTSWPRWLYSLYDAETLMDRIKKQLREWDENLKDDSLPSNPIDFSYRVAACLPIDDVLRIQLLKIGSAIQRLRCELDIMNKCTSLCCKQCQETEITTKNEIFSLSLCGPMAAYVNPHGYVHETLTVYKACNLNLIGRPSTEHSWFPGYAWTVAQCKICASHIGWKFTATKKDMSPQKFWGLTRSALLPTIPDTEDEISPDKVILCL
T7 sequence (Q16531 whole entry partner): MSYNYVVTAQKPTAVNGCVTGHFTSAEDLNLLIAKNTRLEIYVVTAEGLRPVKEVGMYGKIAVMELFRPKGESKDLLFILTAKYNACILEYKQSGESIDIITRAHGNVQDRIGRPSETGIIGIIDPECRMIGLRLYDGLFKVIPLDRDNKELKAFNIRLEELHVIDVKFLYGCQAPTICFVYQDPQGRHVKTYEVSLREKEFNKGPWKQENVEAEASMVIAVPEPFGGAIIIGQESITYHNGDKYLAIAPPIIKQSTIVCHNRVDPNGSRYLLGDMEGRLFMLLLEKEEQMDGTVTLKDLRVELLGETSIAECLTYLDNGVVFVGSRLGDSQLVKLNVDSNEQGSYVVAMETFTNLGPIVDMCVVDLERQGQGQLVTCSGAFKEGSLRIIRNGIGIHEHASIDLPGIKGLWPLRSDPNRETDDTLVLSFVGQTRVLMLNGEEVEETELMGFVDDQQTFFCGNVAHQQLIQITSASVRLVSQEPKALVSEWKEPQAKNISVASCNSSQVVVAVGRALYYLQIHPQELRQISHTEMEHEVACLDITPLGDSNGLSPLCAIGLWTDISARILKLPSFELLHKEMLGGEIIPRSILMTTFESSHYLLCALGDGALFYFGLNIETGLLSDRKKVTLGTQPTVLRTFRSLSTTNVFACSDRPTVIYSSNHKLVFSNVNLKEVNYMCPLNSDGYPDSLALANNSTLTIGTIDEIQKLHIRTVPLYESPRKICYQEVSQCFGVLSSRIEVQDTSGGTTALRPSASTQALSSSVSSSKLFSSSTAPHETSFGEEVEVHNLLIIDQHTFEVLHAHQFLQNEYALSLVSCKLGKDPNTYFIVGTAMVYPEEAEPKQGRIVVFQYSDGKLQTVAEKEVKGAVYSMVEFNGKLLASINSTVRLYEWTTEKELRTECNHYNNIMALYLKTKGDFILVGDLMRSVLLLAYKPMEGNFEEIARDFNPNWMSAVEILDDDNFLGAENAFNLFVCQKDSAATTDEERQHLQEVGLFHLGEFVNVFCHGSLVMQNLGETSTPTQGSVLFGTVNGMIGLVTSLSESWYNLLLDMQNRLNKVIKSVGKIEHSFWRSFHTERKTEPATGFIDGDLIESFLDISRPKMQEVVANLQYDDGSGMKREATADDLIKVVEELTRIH
T6 sequence (P48729 whole entry): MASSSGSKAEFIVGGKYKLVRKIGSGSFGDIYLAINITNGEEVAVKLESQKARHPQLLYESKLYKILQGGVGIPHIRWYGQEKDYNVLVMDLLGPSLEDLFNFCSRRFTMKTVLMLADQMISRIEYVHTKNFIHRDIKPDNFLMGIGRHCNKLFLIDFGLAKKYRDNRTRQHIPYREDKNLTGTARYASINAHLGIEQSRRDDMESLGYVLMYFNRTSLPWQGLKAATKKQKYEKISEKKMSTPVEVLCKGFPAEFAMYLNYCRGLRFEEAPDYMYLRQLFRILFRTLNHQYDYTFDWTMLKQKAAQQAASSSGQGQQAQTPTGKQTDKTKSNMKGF
T6 sequence (Q96SW2 whole entry): as the sequence (Q96SW2 whole entry) above
T6 sequence (Q16531 whole entry partner): as the sequence (Q16531 whole entry partner) above
T1 sequence (Q9UKT9 whole entry): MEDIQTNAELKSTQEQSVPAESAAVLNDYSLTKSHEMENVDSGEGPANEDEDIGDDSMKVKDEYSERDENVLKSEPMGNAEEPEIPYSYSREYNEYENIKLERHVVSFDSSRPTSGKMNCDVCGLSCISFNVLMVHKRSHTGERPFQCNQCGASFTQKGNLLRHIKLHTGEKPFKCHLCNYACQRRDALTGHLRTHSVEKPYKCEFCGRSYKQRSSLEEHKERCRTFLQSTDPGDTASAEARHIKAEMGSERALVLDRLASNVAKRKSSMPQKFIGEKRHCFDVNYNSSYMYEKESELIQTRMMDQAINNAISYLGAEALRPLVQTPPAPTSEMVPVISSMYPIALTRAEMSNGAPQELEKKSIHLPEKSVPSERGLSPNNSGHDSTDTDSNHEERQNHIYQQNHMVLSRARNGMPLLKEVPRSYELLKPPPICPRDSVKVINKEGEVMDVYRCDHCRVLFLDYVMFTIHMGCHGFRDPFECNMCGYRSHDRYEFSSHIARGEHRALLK
T1 sequence (Q96SW2 whole entry): as the sequence (Q96SW2 whole entry) above
T1 sequence (Q16531 whole entry partner): as the sequence (Q16531 whole entry partner) above
T3 sequence (Q9UKS7 whole entry): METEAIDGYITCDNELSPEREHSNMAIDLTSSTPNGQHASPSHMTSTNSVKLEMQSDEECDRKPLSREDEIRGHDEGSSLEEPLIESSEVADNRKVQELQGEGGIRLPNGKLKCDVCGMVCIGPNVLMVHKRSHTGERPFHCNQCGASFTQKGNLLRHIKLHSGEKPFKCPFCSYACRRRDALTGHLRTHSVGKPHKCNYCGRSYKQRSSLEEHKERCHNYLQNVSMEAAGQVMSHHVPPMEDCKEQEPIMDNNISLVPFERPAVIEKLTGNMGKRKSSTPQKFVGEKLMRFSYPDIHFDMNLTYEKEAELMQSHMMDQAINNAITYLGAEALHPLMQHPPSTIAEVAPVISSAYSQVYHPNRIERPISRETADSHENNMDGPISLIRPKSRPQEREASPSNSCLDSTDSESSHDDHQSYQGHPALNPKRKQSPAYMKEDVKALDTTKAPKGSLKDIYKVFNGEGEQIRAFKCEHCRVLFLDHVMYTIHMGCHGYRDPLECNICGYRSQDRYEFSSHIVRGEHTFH
T3 sequence (Q96SW2 whole entry): as the sequence (Q96SW2 whole entry) above
T3 sequence (Q16531 whole entry partner): as the sequence (Q16531 whole entry partner) above
T2 sequence (P15170 whole entry): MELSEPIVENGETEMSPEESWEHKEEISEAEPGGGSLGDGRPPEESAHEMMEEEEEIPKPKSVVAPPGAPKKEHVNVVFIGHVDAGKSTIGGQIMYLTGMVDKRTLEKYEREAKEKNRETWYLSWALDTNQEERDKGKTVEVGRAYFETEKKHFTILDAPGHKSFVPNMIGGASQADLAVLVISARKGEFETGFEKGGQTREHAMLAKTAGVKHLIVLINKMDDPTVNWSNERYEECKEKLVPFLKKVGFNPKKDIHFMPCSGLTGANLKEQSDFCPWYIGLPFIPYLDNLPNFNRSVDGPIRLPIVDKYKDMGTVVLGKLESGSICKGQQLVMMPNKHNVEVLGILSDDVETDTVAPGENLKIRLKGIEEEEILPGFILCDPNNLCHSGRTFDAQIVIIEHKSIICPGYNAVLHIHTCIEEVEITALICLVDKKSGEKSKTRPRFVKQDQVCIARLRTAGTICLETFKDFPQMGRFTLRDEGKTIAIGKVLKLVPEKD
T2 sequence (Q96SW2 whole entry): as the sequence (Q96SW2 whole entry) above
T2 sequence (Q16531 whole entry partner): as the sequence (Q16531 whole entry partner) above
T4 sequence (Q96SW2 whole entry): as the sequence (Q96SW2 whole entry) above

Row | SMILES | IKZF3 substrate protein remaining % (IKZF3; [2]) | GSPT1 substrate protein remaining % (GSPT1; [2]) | IKZF2 substrate protein remaining % (IKZF2; [2]) | pIC50 [1] | IKZF 1 substrate protein remaining % (IKZF1; [2]) | CK1a substrate protein remaining % (CK1α; [2]) | Weel substrate protein remaining % (WEE1; [2]) | pIC50 [1, 3] | IKZF3 substrate protein remaining % (IKZF3; [4]) | GSPT1 substrate protein remaining % (GSPT1; [4]) | IKZF2 substrate protein remaining % (IKZF2; [4]) | IKZF 1 substrate protein remaining % (IKZF1; [4]) | CK1a substrate protein remaining % (CK1α; [4]) | Weel substrate protein remaining % (WEE1; [4])
1 | O=C1CCC(N2Cc3cc(CN4CCC(N5C(=O)COc6cc(F)ccc65)CC4)ccc3C2=O)C(=O)N1 (stereo not drawn) [GT-04860, 3-(5-((4-(7-fluoro-3-oxo-2,3-dihydro-4H-benzo[b][1,4]oxazin-4-yl)piperidin-1-yl)methyl)-1-oxoisoindolin-2-yl)piperidine-2,6-dione] | A (0% ≤ substrate protein remaining % ≤ 80%) | A (0% ≤ substrate protein remaining % ≤ 80%) | A (0% ≤ substrate protein remaining % ≤ 80%) | > 6.30 | A (0% ≤ substrate protein remaining % ≤ 80%) | B (80%< substrate protein remaining %≤ 100%) | B (80%< substrate protein remaining %≤ 100%) |  |  |  |  |  |  | 
2 | O=C1CCC(N2Cc3cc(CN4CCN(c5ncc(Cl)cc5Cl)CC4)ccc3C2=O)C(=O)N1 (stereo not drawn) [GT-04479, 3-(5-((4-(3,5-dichloropyridin-2-yl)piperazin-1-yl)methyl)-1-oxoisoindolin-2-yl)piperidine-2,6-dione] | A (0% ≤ substrate protein remaining % ≤ 80%) | A (0% ≤ substrate protein remaining % ≤ 80%) | A (0% ≤ substrate protein remaining % ≤ 80%) |  | B (80%< substrate protein remaining %≤ 100%) | B (80%< substrate protein remaining %≤ 100%) | B (80%< substrate protein remaining %≤ 100%) | 6.00 to 6.30 |  |  |  |  |  | 
3 | O=C1CCC(N2Cc3cc(CN4CCN(c5ncnc(Cl)c5Cl)CC4)ccc3C2=O)C(=O)N1 (stereo not drawn) [GT-04501, 3-(5-((4-(5,6-dichloropyrimidin-4-yl)piperazin-1-yl)methyl)-1-oxoisoindolin-2-yl)piperidine-2,6-dione] | A (0% ≤ substrate protein remaining % ≤ 80%) | A (0% ≤ substrate protein remaining % ≤ 80%) | A (0% ≤ substrate protein remaining % ≤ 80%) |  | A (0% ≤ substrate protein remaining % ≤ 80%) | A (0% ≤ substrate protein remaining % ≤ 80%) | A (0% ≤ substrate protein remaining % ≤ 80%) | > 6.30 |  |  |  |  |  | 
4 | O=C1CCC(N2Cc3cc(CN4CCC(c5ncnc6sc(-c7ccccc7)cc56)CC4)ccc3C2=O)C(=O)N1 (stereo not drawn) [GT-05159, 3-(1-oxo-5-((4-(6-phenylthieno[2,3-d]pyrimidin-4-yl)piperidin-1-yl)methyl)isoindolin-2-yl)piperidine-2,6-dione] | A (0% ≤ substrate protein remaining % ≤ 80%) | A (0% ≤ substrate protein remaining % ≤ 80%) | A (0% ≤ substrate protein remaining % ≤ 80%) |  | A (0% ≤ substrate protein remaining % ≤ 80%) | B (80%< substrate protein remaining %≤ 100%) | B (80%< substrate protein remaining %≤ 100%) | > 6.30 |  |  |  |  |  | 
5 | Cc1nc(C2=CCN(Cc3ccc4c(c3)C(=O)N(C3CCC(=O)NC3=O)C4=O)CC2)c2c(-c3ccccc3)csc2n1 (stereo not drawn) [GT-06677, 2-(2,6-dioxopiperidin-3-yl)-5-((4-(2-methyl-5-phenylthieno[2,3-d]pyrimidin-4-yl)-3,6-dihydropyridin-1(2H)-yl)methyl)isoindoline-1,3-dione] |  |  |  |  |  |  |  | 6.00 to 6.30 | B (80%< substrate protein remaining %≤ 100%) | B (80%< substrate protein remaining %≤ 100%) | B (80%< substrate protein remaining %≤ 100%) | B (80%< substrate protein remaining %≤ 100%) | A (0% ≤ substrate protein remaining % ≤ 80%) | B (80%< substrate protein remaining %≤ 100%)
6 | CCc1cnc(C2CCN(Cc3ccc4c(c3)CN(C3CCC(=O)NC3=O)C4=O)CC2)nc1 (stereo not drawn) [GT-04936, 3-(5-((4-(5-ethylpyrimidin-2-yl)piperidin-1-yl)methyl)-1-oxoisoindolin-2-yl)piperidine-2,6-dione] | A (0% ≤ substrate protein remaining % ≤ 80%) | A (0% ≤ substrate protein remaining % ≤ 80%) | A (0% ≤ substrate protein remaining % ≤ 80%) |  | A (0% ≤ substrate protein remaining % ≤ 80%) | A (0% ≤ substrate protein remaining % ≤ 80%) | A (0% ≤ substrate protein remaining % ≤ 80%) | 5.82 to 6.00 |  |  |  |  |  | 
7 | O=C1CCC(N2Cc3cc(CN4CCN(c5ncnc6sc7c(c56)CCC7)CC4)ccc3C2=O)C(=O)N1 (stereo not drawn) [GT-04996, 3-(5-((4-(6,7-dihydro-5H-cyclopenta[4,5]thieno[2,3-d]pyrimidin-4-yl)piperazin-1-yl)methyl)-1-oxoisoindolin-2-yl)piperidine-2,6-dione] | A (0% ≤ substrate protein remaining % ≤ 80%) | A (0% ≤ substrate protein remaining % ≤ 80%) | A (0% ≤ substrate protein remaining % ≤ 80%) |  | A (0% ≤ substrate protein remaining % ≤ 80%) | A (0% ≤ substrate protein remaining % ≤ 80%) | A (0% ≤ substrate protein remaining % ≤ 80%) | > 6.30 |  |  |  |  |  | 
8 | O=C1CCC(N2Cc3cc(CN4CCC(c5ncc6ccsc6n5)CC4)ccc3C2=O)C(=O)N1 (stereo not drawn) [GT-04933, 3-(1-oxo-5-((4-(thieno[2,3-d]pyrimidin-2-yl)piperidin-1-yl)methyl)isoindolin-2-yl)piperidine-2,6-dione] | A (0% ≤ substrate protein remaining % ≤ 80%) | A (0% ≤ substrate protein remaining % ≤ 80%) | A (0% ≤ substrate protein remaining % ≤ 80%) |  | A (0% ≤ substrate protein remaining % ≤ 80%) | A (0% ≤ substrate protein remaining % ≤ 80%) | A (0% ≤ substrate protein remaining % ≤ 80%) | 6.00 to 6.30 |  |  |  |  |  | 
9 | Cc1nc(C2CCN(Cc3ccc4c(c3)C(=O)N(C3CCC(=O)NC3=O)C4=O)CC2)c2c(-c3ccccc3)csc2n1 (stereo not drawn) [GT-06646, 2-(2,6-dioxopiperidin-3-yl)-5-((4-(2-methyl-5-phenylthieno[2,3-d]pyrimidin-4-yl)piperidin-1-yl)methyl)isoindoline-1,3-dione] |  |  |  |  |  |  |  | 6.00 to 6.30 | B (80%< substrate protein remaining %≤ 100%) | A (0% ≤ substrate protein remaining % ≤ 80%) | B (80%< substrate protein remaining %≤ 100%) | B (80%< substrate protein remaining %≤ 100%) | B (80%< substrate protein remaining %≤ 100%) | B (80%< substrate protein remaining %≤ 100%)
10 | O=C1CCC(N2Cc3cc(CN4CCN(c5nccc(I)c5F)CC4)ccc3C2=O)C(=O)N1 (stereo not drawn) [GT-04557, 3-(5-((4-(3-fluoro-4-iodopyridin-2-yl)piperazin-1-yl)methyl)-1-oxoisoindolin-2-yl)piperidine-2,6-dione] | A (0% ≤ substrate protein remaining % ≤ 80%) | A (0% ≤ substrate protein remaining % ≤ 80%) | A (0% ≤ substrate protein remaining % ≤ 80%) |  | A (0% ≤ substrate protein remaining % ≤ 80%) | A (0% ≤ substrate protein remaining % ≤ 80%) | A (0% ≤ substrate protein remaining % ≤ 80%) | 6.00 to 6.30 |  |  |  |  |  | 
11 | O=C1CCC(N2Cc3cc(CN4CCC(c5ccccc5C(F)(F)F)CC4)ccc3C2=O)C(=O)N1 (stereo not drawn) [GT-04488, 3-(1-oxo-5-((4-(2-(trifluoromethyl)phenyl)piperidin-1-yl)methyl)isoindolin-2-yl)piperidine-2,6-dione] | B (80%< substrate protein remaining %≤ 100%) | A (0% ≤ substrate protein remaining % ≤ 80%) | A (0% ≤ substrate protein remaining % ≤ 80%) |  | B (80%< substrate protein remaining %≤ 100%) | A (0% ≤ substrate protein remaining % ≤ 80%) | B (80%< substrate protein remaining %≤ 100%) | 6.00 to 6.30 |  |  |  |  |  | 
12 | O=C1CCC(N2Cc3cc(CN4CCN(c5ncnc6scc(-c7ccccc7)c56)CC4)ccc3C2=O)C(=O)N1 (stereo not drawn) [GT-04709, 3-(1-oxo-5-((4-(5-phenylthieno[2,3-d]pyrimidin-4-yl)piperazin-1-yl)methyl)isoindolin-2-yl)piperidine-2,6-dione] | A (0% ≤ substrate protein remaining % ≤ 80%) | A (0% ≤ substrate protein remaining % ≤ 80%) | B (80%< substrate protein remaining %≤ 100%) |  | B (80%< substrate protein remaining %≤ 100%) | A (0% ≤ substrate protein remaining % ≤ 80%) | B (80%< substrate protein remaining %≤ 100%) | > 6.30 |  |  |  |  |  | 

Reference: EP4745137A1 (Gluetacs Therapeutics (Shanghai) Co., Ltd., priority 2023, dated 2025)
